SMILES strings stand for the structures. Converted amounts (≈) assume the structure as drawn.

The target in data set [1] is T1, Phosphatidylinositol 4,5-bisphosphate 3-kinase catalytic subunit delta isoform (Homo sapiens, UniProt O00329).
T1 sequence (O00329 whole entry): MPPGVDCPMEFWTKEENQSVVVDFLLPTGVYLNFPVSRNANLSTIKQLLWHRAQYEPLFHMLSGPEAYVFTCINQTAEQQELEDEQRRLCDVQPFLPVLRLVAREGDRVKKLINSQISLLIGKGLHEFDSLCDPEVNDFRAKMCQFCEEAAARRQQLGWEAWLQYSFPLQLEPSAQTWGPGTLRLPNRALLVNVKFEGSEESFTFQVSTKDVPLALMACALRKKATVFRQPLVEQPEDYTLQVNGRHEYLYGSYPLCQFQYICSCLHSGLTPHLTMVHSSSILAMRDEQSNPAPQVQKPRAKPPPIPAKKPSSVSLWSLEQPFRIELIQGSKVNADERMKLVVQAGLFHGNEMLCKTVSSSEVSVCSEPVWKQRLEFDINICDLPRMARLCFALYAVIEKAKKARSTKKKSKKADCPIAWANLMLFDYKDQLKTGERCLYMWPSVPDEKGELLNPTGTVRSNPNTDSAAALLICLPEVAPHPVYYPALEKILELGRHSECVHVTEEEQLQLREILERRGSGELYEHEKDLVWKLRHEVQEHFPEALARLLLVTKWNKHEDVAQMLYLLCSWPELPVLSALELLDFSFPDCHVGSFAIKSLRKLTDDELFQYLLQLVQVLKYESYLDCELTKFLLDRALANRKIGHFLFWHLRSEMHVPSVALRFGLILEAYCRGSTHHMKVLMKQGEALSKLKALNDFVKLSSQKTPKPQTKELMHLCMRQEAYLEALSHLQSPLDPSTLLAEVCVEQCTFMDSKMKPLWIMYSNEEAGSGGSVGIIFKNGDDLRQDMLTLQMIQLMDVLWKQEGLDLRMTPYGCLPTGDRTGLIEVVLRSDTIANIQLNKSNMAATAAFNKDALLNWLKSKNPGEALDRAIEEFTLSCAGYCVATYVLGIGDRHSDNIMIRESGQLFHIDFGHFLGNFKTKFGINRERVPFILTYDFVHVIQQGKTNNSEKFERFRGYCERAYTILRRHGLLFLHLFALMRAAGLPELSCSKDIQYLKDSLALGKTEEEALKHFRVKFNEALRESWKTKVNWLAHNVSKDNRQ
Briefly: Inhibition of PI3Kdelta in human Ramos cells assessed as reduction in AKT phosphorylation incubated for 2 hrs by Alexa flour 488 based FACS analysis. Format: cell-based.

Another data set deals with Pfeiffer. The data set can be described thus: Cytotoxicity against human Pfeiffer cells assessed as reduction in cell viability incubated for 4 days by [3H]-thymidine incorporation based liquid scintillation counter method. Format: functional.
Data set [2] is described as follows: Fractional unbound in human plasma. The data set is classed as ADME, cell-free.
The nature of data set [3]: Permeability across apical to basolateral side in human Caco2 cells at 50 uM incubated for 120 mins by LC/MS analysis. Format: ADME, cell-based. Conditions: Caco-2, read-out: permeability; call rule not given here.
Data set [4] has as its target T1, Phosphatidylinositol 4,5-bisphosphate 3-kinase catalytic subunit delta isoform. Briefly: Inhibition of PI3Kdelta in human whole blood assessed as reduction in anti-IgE antibody-induced CD63 expression by flow cast kit method. The data set is classed as tissue-based.
A short description of data set [5]: Intrinsic clearance in human liver microsomes at 1 uM measured upto 30 mins by LC/MS analysis. Format: ADME, Microsome. Conditions: read-out: CLH (converted).
A short description of data set [6]: Solubility of the compound at pH 7.4. The data set is classed as physicochemical. Conditions: buffer.
The target in data set [7] is T1, Phosphatidylinositol 4,5-bisphosphate 3-kinase catalytic subunit delta isoform. The data set can be described thus: Inhibition of PI3Kdelta (unknown origin) using D-myophosphatidylinositol 4,5-bisphosphate as substrate incubated for 120 mins by [gamma-33P]-ATP based scintillation counting method.
Data set [8] addresses Voltage-gated inwardly rectifying potassium channel KCNH2 (Homo sapiens, UniProt Q12809). Briefly: Inhibition of human ERG expressed in HEK293 cells by voltage patch clamp assay. Format: cell-based.
Data set [9] can be described thus: Terminal half life in rat at 4 mg/kg, iv measured for 24 hrs by LC-MS/MS analysis. Format: ADME, organism-based. Conditions: in vivo, read-out: beta t1/2 (converted).
A short description of data set [10]: Oral bioavailability in Beagle dog at 4 mg/kg measured for 24 hrs by LC-MS/MS analysis. Particulars: in vivo. Format: ADME, organism-based, Canis lupus familiaris.
Data set [11] can be described thus: Volume of distribution at steady state in cynomolgus monkey at 2 mg/kg, iv measured for 24 hrs by LC-MS/MS analysis. Particulars: in vivo, read-out: Vdss. Format: ADME, organism-based, Macaca fascicularis.
Data set [12] in a line: Oral bioavailability in cynomolgus monkey at 4 mg/kg measured for 24 hrs by LC-MS/MS analysis. The data set is classed as ADME, organism-based, Macaca fascicularis. Particulars: in vivo.
Another data set deals with T2, Cytochrome P450 2B6 (Homo sapiens, UniProt P20813).
T2 sequence (P20813 whole entry): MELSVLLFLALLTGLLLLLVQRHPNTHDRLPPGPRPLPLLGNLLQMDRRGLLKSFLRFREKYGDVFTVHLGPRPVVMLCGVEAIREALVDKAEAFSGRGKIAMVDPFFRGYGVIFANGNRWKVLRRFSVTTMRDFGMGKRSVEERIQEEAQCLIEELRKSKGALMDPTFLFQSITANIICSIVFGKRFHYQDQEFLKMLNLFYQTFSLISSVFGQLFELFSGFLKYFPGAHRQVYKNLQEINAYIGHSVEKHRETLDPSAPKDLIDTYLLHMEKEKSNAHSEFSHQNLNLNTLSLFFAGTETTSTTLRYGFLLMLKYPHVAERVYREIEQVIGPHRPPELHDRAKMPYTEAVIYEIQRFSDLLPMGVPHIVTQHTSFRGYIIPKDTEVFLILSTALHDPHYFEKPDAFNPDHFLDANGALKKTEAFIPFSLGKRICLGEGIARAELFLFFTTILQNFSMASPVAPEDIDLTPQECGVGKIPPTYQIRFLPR
The data set can be described thus: Inhibition of CYP2B6 in human liver microsomes at 0.1 to 25 uM using bupropion as substrate by LC/MS analysis. The data set is classed as ADME.

The next data set addresses Cytochrome P450 2D6 (Homo sapiens, UniProt P10635). The data set can be described thus: Inhibition of CYP2D6 in human liver microsomes using bufuralol as substrate by LC/MS analysis. Format: ADME.
Data set [13] deals with T1, Phosphatidylinositol 4,5-bisphosphate 3-kinase catalytic subunit delta isoform.
Description: Inhibition of PI3Kdelta (unknown origin) using D-myophosphatidylinositol 4,5-bisphosphate as substrate incubated for 120 mins by [gamma-33P]ATP based SPA assay

Sequence of Cytochrome P450 2D6 (P10635 whole entry, canonical isoform): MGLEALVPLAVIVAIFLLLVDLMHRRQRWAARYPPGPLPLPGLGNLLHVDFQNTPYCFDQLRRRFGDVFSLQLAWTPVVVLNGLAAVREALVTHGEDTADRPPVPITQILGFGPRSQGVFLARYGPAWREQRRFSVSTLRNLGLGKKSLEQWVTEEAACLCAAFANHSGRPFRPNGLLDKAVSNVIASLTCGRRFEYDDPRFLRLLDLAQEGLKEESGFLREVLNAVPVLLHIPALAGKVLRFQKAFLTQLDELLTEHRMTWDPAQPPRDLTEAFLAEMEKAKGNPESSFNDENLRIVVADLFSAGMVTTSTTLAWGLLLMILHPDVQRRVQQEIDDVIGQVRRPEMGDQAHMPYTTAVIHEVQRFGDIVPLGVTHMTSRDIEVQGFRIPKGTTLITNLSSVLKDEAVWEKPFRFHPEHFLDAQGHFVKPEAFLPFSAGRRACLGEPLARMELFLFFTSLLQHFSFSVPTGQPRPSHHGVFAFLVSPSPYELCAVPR
Sequence of Voltage-gated inwardly rectifying potassium channel KCNH2 (Q12809 whole entry): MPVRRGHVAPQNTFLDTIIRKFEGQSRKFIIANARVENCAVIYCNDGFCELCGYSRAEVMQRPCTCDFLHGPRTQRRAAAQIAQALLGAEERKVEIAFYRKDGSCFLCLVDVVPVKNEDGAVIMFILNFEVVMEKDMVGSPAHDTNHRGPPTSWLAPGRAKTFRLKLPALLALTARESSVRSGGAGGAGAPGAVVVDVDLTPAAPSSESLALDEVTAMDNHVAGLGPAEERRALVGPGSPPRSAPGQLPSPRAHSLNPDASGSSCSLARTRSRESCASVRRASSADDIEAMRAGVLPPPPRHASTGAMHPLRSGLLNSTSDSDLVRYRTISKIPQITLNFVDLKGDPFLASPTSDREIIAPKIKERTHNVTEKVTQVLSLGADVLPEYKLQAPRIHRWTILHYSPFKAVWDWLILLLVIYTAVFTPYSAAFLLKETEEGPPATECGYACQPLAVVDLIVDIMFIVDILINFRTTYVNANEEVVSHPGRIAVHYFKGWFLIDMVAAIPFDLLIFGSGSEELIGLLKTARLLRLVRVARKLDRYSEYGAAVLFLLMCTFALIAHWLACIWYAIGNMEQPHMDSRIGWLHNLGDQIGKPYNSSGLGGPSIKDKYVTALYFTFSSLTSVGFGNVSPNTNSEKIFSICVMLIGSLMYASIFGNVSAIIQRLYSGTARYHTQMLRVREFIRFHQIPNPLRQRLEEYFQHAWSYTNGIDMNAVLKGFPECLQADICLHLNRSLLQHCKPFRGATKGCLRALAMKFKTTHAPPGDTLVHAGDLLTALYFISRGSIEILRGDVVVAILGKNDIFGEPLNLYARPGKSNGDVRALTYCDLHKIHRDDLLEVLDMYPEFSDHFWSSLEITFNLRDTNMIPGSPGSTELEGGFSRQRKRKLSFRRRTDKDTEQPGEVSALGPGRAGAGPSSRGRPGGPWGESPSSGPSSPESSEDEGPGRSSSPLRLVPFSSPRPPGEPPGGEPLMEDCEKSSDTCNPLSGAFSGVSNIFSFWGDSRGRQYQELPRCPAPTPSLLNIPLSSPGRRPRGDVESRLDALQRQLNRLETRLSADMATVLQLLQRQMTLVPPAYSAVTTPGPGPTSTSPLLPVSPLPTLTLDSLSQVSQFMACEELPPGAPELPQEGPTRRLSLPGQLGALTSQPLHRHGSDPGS

On to `CCOc1c([C@H](C)n2nc(C)c3c(N)ncnc32)cc(Cl)c(F)c1[C@@H]1CNC(=O)C1` [PARSACLISIB], for which the IC50 is 1.1 nM in data set [1]; 2.5 nM with Pfeiffer; 2 nM in data set [4]; 1.1 nM in data set [7]; 75000 nM in data set [8]; less than 1 nM in [13]. Moreover, the fraction unbound in [2] amounted to 0.058. Also, the Papp A→B at 2 h, 50 µM in data set [3] is 10 nm/s. Further, the CLint scaled at 1 µM in [5] was 0.7 L/h/kg. This compound also displayed a solubility in [6] of 0.21 mg/mL (≈ 485 µM). Also, the half-life in data set [9] was 4 h. Moreover, the bioavailability in data set [10] turned out to be 100%; in [12] it was 79%. Further, the Vd in [11] amounted to 0.72 L/kg. For the same compound, the “inhibition (INH)” value at Cytochrome P450 2B6 and against Cytochrome P450 2D6 was “Not Active” each time.
